Drawing on patent US20240050571A1, “CARBORANE HYDROXAMIC ACID MATRIX METALLOPROTEINASE INHIBITORS AND AGENTS FOR BORON NEUTRON CAPTURE THERAPY” (LOYOLA UNIVERSITY OF CHICAGO, priority 2018, published 2024), this text covers IC50 for one molecule.

The target of one assay is MMP-2 (Homo sapiens (Human), UniProt P08253). To be noted: read-out: MMP-2 IC50.
For the next assay, the target named is MMP-9 (Homo sapiens (Human), UniProt P14780). Kind of assay: Assay for inhibition of MMP (fluorescence), MMP-9. The settings on record: read-out: MMP-9 IC50.

The structures appear in SMILES notation.

Sequence of MMP-9 (P14780 107-707 limits assumed): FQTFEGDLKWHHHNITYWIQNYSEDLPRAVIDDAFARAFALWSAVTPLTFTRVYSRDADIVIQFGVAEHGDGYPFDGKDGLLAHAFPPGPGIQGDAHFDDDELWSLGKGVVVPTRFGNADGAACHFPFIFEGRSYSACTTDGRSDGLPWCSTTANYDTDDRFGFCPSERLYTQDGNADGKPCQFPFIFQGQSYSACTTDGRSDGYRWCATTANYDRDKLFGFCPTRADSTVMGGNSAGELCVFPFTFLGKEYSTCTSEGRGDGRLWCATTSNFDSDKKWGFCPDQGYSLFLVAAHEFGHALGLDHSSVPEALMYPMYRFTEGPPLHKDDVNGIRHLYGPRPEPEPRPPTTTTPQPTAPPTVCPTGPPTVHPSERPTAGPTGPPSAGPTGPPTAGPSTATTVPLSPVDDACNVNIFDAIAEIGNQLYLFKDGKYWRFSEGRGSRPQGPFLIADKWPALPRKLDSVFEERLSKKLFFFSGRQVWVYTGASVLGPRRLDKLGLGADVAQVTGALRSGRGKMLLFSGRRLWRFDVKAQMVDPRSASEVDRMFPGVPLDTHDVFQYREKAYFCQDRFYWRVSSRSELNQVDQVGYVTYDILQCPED
Sequence of MMP-2 (P08253 110-660 limits assumed): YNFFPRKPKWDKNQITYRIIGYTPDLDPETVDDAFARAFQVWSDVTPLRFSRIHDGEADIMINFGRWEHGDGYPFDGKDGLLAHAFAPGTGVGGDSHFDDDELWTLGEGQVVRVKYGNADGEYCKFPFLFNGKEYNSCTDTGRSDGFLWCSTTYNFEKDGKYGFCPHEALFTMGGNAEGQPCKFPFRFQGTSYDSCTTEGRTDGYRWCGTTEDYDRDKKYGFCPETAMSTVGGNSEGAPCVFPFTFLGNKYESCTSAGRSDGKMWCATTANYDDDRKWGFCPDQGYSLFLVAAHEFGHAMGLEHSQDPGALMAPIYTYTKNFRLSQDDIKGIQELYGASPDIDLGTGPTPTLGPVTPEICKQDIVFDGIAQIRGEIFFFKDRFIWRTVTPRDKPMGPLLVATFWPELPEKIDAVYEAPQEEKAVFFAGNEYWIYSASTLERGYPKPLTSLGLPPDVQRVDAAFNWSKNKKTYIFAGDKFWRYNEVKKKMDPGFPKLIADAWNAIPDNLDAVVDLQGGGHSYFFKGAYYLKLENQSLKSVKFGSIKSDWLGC

A word on the IC50: it is the point on the concentration scale where inhibition reaches its midpoint. With `COc1ccc(S(=O)(=O)N(CC(=O)NO)CC(C)C)cc1` [NNGH, N-Isobutyl-N-(4-methoxyphenylsulfonyl)glycyl hydroxamic acid], the concentration for half-maximal inhibition (IC50) came out at 2.7 nM at MMP-2 and 5 nM at MMP-9.
